Read-outs that look alike come from different tables or passages of the source.
Key:
[1] = system: rhythmic bladder voiding contractions; test: Volume-induced rhythmic bladder voiding contractions in anaesthetized rats; assay type: in vivo, rat; conditions: intravenous administration, anaesthetized rats; for ED50: Rattus norvegicus, extrapolated dose inducing a reduction of the number of contractions >30% in 50% of treated rats, read-out: ED50 (frequency); for ED10min: extrapolated dose inducing 10 min of disappearance of the contractions
Method: Female Sprague Dawley rats weighing 225-275 g (Crl: CDo BR, Charles River Italia) were used. The animals were housed with free access to food and water and were maintained on a forced 12 h alternating light-dark cycle at 22-24° C. for at least one week, except during the experiment. The activity on the rhythmic bladder voiding contractions was evaluated according to the method of Dray (J. Pharmacol. Methods, 13:157, 1985), with some modifications as in Guarneri (Pharmacol. Res., 27:173, 1993). Briefly, rats were anesthetized by subcutaneous injection of 1.25 g/kg (5 ml/kg) urethane, after which the urinary bladder was catheterized via the urethra using PE 50 polyethylene tubing filled with physiological saline. The catheter was tied in place with a ligature around the external urethral orifice and was connected with conventional pressure transducers (Statham P23 ID/P23 XL). […] The bladder was then filled via the recording catheter by incremental volumes of warm (37° C.) saline until reflex bladder voiding contractions occurred (usually 0.8-1.5 ml). For intravenous (i.v.) injection of bioactive compounds, PE 50 polyethylene tubing filled with physiological saline was inserted into the jugular vein.
From the cystometrogram, the number of contractions recorded 15 min before (basal values) and after treatment, as well as the mean amplitude of these contractions (mean height of the peaks in mm Hg) was evaluated.
Since most compounds produced an effect that was relatively rapid in onset and led to a complete cessation of bladder contractions, bioactivity was conveniently estimated by measuring the duration of bladder quiescence (i.e., the duration of time during which no contractions occurred). Moreover, the number of animals tested showing a reduction in the number of contractions >30% of that observed in the basal period, was recorded. […] Also computed in this manner were extrapolated doses which induced a reduction of the number of contractions of greater than 30% in 50% of treated rats (ED50, frequency) by the method of Bliss (Bliss C. I., Quart. J. Pharm. Pharmacol. 11, 192-216, 1938). After the suppressive effects of drug injection wore off, the height of the contractile peaks was compared with the height of the peaks previously recorded after the control intravenous administration of vehicle. The potency of the tested compounds (ED50 value, the extrapolated doses inducing a 30% reduction of amplitude of the contractions in 50% of treated rats) was evaluated on a quantal basis by the method of Bliss (Bliss C. I., Quart. J. Pharm. Pharmacol. 11, 192-216, 1938).

[2] = target: T1, human 5-HT1A serotonergic receptor (Homo sapiens, UniProt P08908); test: Radioreceptor binding to recombinant human 5-HT1A receptors ([3H]8-OH-DPAT, HeLa cell membranes)
T1 construct: expressed in transfected cells; host or cells: HeLa (human), stably transfected; cell membranes
T1 sequence (P08908 1-422): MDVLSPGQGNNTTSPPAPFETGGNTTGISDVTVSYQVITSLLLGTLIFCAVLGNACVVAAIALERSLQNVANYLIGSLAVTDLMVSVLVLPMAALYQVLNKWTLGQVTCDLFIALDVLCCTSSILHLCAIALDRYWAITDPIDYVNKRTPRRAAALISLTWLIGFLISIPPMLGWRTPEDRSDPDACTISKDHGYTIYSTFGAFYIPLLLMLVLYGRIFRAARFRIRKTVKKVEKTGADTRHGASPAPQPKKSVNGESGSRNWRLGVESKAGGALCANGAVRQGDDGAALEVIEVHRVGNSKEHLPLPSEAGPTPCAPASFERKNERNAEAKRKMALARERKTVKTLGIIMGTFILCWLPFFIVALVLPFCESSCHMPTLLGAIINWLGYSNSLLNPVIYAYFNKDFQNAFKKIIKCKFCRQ
Method: Genomic clone G-21 coding for the human 5-HT1A serotonergic receptor is stably transfected in a human cell line (HeLa). HeLa cells were grown as monolayers in Dulbecco's modified Eagle's medium (DMEM), supplemented with 10% fetal calf serum and gentamicin ([…]), 5% CO2 at 37° C. Cells were detached from the growth flask at 95% confluence by a cell scraper and were lysed in ice-cold 5 mM Tris and 5 mM EDTA buffer (pH 7.4). Homogenates were centrifuged at 40000×g×20 min and pellets were resuspended in a small volume of ice-cold 5 mM Tris and 5 mM EDTA buffer (pH 7.4) and immediately frozen and stored at −70° C. until use. On the day of experiment, cell membranes were resuspended in binding buffer: 50 mM Tris HCl (pH 7.4), 2.5 mM MgCl2, 10 μM pargyline (Fargin et al., Nature 335, 358-360, 1988). Membranes were incubated in a final volume of 1 ml for 30 min at 30° C. with 0.2-1 nM [^3H]8-OH-DPAT, in absence or presence of competing drugs; non-specific binding was determined in the presence of 10 μM 5-HT. The incubation was stopped by addition of ice-cold Tris-HCl buffer and rapid filtration through 0.2% polyethyleneimine-pretreated Whatman GF/B or Schleieher & Schuell GF52 filters.
(§1) The inhibition of specific binding of the radioligands by the tested drugs was analyzed to estimate the IC50 value by using the non-linear curve-fitting program Allfit (De Lean et al., Am. J. Physiol. 235, E97-E102, 1978). The IC50 value is converted to an affinity constant (Ki) by the equation of Cheng & Prusoff (Cheng, Y. C.; Prusoff, W. H. Biochem. Pharmacol. 22, 3099-3108, 1973).

[3] = target: T2, 5-HT2A serotonergic receptors (Rattus norvegicus, UniProt P14842); test: Radioreceptor binding to native 5-HT2A serotonergic receptors ([3H]ketanserin, rat cerebral cortex membranes); conditions: rat cerebral cortex membranes, [3H]ketanserin; read-out: Ki 5-HT2A
T2 construct: from tissue; host or cells: cerebral cortex of male Sprague Dawley rats, membranes
Method: Binding studies on native 5-HT2A serotonergic receptors (Craig A. and Kenneth J., Life Sci. 38, 117-127, 1986) were carried out in membranes of rat cerebral cortex. Male Sprague Dawley rats (200-300 g, S D Harlan/Nossan, Italy) were killed by cervical dislocation and cerebral cortexes were excised and immediately frozen in liquid nitrogen and stored at −70° C. until use. Tissues were homogenized (2×20 sec) in 50 volumes of cold 50 mM Tris-HCl buffer pH 7.4, using a Polytron homogenizer (speed 7). Homogenates were centrifuged at 49000×g for 10 min, resuspended in 50 volumes of the same buffer, incubated at 37° C. for 15 min and centrifuged and resuspended twice more. The final pellets were suspended in 100 volumes of 50 mM Tris-HCl buffer pH 7.7. Membranes were incubated in a final volume of 1 ml for 20 min at 37° C. with 0.7-1.3 nM [^3H]ketanserin (5-HT2A receptors), in absence or presence of competing drugs. Non-specific binding was determined in the presence of 2 μM ketanserin. The incubation was stopped by addition of ice-cold 50 mM Tris-HCl buffer and rapid filtration through 0.2% polyethyleneimine pretreated Whatman GF/B or Schleicher & Schuell GF52 filters. The filters are then washed with ice-cold buffer and the radioactivity retained on the filters was counted by liquid scintillation spectrometry.
as §1

[4] = target: α1 adrenergic receptors; test: Radioreceptor binding to native α1 adrenergic receptors ([3H]prazosin, rat cerebral cortex membranes)
Method: Binding studies on native α1 adrenergic receptors were carried out in membranes of rat cerebral cortex. Male Sprague Dawley rats (200-300 g, Charles River, Italy) were killed by cervical dislocation and cerebral cortexes were dissected and immediately frozen and stored at −70° C. until use. Tissue was homogenized (2×20 sec) in 50 volumes of cold 50 mM Tris-HCl buffer pH 7.4, using a Polytron homogenizer (speed 7). Homogenates were centrifuged at 48000×g for 10 min, resuspended in 50 volumes of the same buffer, incubated at 37° C. for 15 min and centrifuged and resuspended twice more. The final pellets were suspended in 100 volumes of 50 mM Tris-HCl buffer pH 7.4, containing 10 μM pargyline and 0.1% ascorbic acid. Membranes were incubated in a final volume of 1 ml for 30 min at 25° C. with 0.1-0.5 nM [^3H]prazosin, in the absence or presence of competing drugs; non-specific binding was determined in the presence of 10 μM phentolamine.
The incubation was stopped by addition of ice-cold 50 mM Tris-HCl buffer and rapid filtration through 0.2% polyethyleneimine-pretreated Whatman GF/B or Schleicher & Schuell GF52 filters. The filters were then washed with ice-cold buffer and the radioactivity retained on the filters counted by liquid scintillation spectrometry.
as §1

T2 sequence (P14842 whole entry): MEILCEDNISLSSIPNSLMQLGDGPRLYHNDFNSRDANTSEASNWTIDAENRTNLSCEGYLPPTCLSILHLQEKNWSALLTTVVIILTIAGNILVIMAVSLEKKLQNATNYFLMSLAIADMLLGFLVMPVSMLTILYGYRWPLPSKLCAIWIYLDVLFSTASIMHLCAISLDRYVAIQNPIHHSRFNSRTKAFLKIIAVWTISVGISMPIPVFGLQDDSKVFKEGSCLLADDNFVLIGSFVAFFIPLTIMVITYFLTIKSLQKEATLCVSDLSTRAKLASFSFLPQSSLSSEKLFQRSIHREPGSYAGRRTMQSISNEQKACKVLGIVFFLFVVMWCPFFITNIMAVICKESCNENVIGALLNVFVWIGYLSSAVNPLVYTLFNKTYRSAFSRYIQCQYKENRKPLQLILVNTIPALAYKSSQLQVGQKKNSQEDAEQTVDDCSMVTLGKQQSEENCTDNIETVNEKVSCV

| SMILES | ED50 [1] [mg/kg] | ED10min [1] [mg/kg] | Ki [2] [nM] | Ki [3] [nM] | Ki [4] [nM] | Ki ([2]; recombinant human receptor in HeLa membranes, [3H]8-OH-DPAT, read-out: Ki 5-HT1A) [nM] |
| --- | --- | --- | --- | --- | --- | --- |
| COc1ccccc1N1CCN(CCC(C(N)=O)(c2ccccc2)c2ccccn2)CC1 (stereo not shown) [Ex. 10, 1-[3-aminocarbonyl-3-phenyl-3-(2-pyridyl)propyl]-4-(2-methoxyphenyl)piperazine] | 0.18 | 0.228 | 19.3 | 683 | 1320 |  |
| COc1ccccc1N1CCN(CCC(O)(c2ccccn2)c2ccccn2)CC1 [Ex. 14, 1-[3-hydroxy-3,3-bis-(2-pyridyl)propyl]-4-(2-methoxyphenyl)piperazine] | 0.036 | 0.127 |  | > 1000 | 114 | 0.34 |

From patent publication US6894052B1, “Diarylalkylpiperazines active on the lower urinary tract” (Recordati S.A. Chemical and Pharmaceutical Company, priority 1997, dated 2005)
